Measured values as given in the NIST ThermoML archive (doi:10.1021/je100823t).

What was measured:
[1] = 101 kPa, Liquid; for viscosity: Capillary tube (Ostwald / Ubbelohde) method; for mass density: Pycnometric method
[2] = xn = mol fraction of the nth substance listed; conditions: 101 kPa, Liquid; for viscosity: Capillary tube (Ostwald / Ubbelohde) method; for mass density: Pycnometric method

Cc1ccccc1C [1,2-dimethylbenzene]
[1]
Conditions	mass density [kg/m3]	viscosity [mPa·s]
308.15 K	866.7	0.666
318.15 K	858.4	0.591

Cc1ccccc1C [1,2-dimethylbenzene] + CCCCCCO
[2]
Conditions	mass density, 308.15 K [kg/m3]	mass density, 318.15 K [kg/m3]	viscosity, 308.15 K [mPa·s]	viscosity, 318.15 K [mPa·s]
x2 = 0	866.7	858.4	0.666	0.591
x2 = 0.0999	860.1	851.7	0.709	0.621
x2 = 0.1999	853.9	845.6	0.789	0.683
x2 = 0.2999	847.9	839.7	0.899	0.768
x2 = 0.4001	842.1	833.9	1.043	0.879
x2 = 0.4997	836.4	828.3	1.23	1.02
x2 = 0.6	830.7	822.7	1.475	1.199
x2 = 0.7	825.1	817.2	1.799	1.431
x2 = 0.8	819.5	811.8	2.217	1.73
x2 = 0.8999	814	806.4	2.738	2.104

Cc1cccc(C)c1 [1,3-dimethylbenzene]
[1]
Conditions	mass density [kg/m3]	viscosity [mPa·s]
308.15 K	851.3	0.521
318.15 K	842.7	0.47

Cc1cccc(C)c1 [1,3-dimethylbenzene] + CCCCCCO
[2]
Conditions	mass density, 308.15 K [kg/m3]	mass density, 318.15 K [kg/m3]	viscosity, 308.15 K [mPa·s]	viscosity, 318.15 K [mPa·s]
x2 = 0	851.3	842.7	0.521	0.47
x2 = 0.1002	846.4	837.6	0.562	0.502
x2 = 0.2002	841.7	833	0.638	0.561
x2 = 0.3007	837.2	828.7	0.742	0.643
x2 = 0.4001	833	824.6	0.875	0.747
x2 = 0.5	828.8	820.6	1.057	0.885
x2 = 0.5999	824.7	816.6	1.298	1.066
x2 = 0.6999	820.6	812.7	1.629	1.306
x2 = 0.7999	816.6	808.8	2.072	1.623
x2 = 0.8999	812.6	805	2.643	2.031

Cc1ccc(C)cc1 [1,4-dimethylbenzene]
[1]
Conditions	mass density [kg/m3]	viscosity [mPa·s]
308.15 K	848.2	0.541
318.15 K	839.5	0.486

Cc1ccc(C)cc1 [1,4-dimethylbenzene] + CCCCCCO
[2], x2 = 0
Conditions	mass density [kg/m3]	viscosity [mPa·s]
308.15 K	848.2	0.541
318.15 K	839.5	0.486

CCCCCCO [hexan-1-ol]
[1]
Conditions	mass density [kg/m3]	viscosity [mPa·s]
308.15 K	808.5	3.318
318.15 K	801.2	2.518

CCCCCCO [hexan-1-ol] + Cc1ccc(C)cc1
[2]
Conditions	mass density, 308.15 K [kg/m3]	mass density, 318.15 K [kg/m3]	viscosity, 308.15 K [mPa·s]	viscosity, 318.15 K [mPa·s]
x1 = 0.1001	843.6	834.9	0.578	0.513
x1 = 0.2001	839.4	830.8	0.647	0.567
x1 = 0.2999	835.4	826.9	0.742	0.643
x1 = 0.4001	831.4	823.1	0.87	0.743
x1 = 0.5009	827.5	819.3	1.046	0.877
x1 = 0.5999	823.7	815.6	1.279	1.051
x1 = 0.6999	819.9	811.9	1.602	1.287
x1 = 0.8	816.1	808.3	2.042	1.604
x1 = 0.9	812.3	804.7	2.618	2.017
x1 = 1	808.5	801.2	3.318	2.518

CCCCCCO [hexan-1-ol] + Cc1cccc(C)c1
[2], x1 = 1
Conditions	mass density [kg/m3]	viscosity [mPa·s]
308.15 K	808.5	3.318
318.15 K	801.2	2.518

CCCCCCO [hexan-1-ol] + Cc1ccccc1C
[2], x1 = 1
Conditions	mass density [kg/m3]	viscosity [mPa·s]
308.15 K	808.5	3.318
318.15 K	801.2	2.518
